# Measurements published in ChEMBL document CHEMBL4138146, “A Schmidt rearrangement-mediated synthesis of novel tetrahydro-benzo[1,4]diazepin-5-ones as potential anticancer and antiprotozoal agents” (Eur J Med Chem, 2017).
# Key:
# Format in all cases: functional
# [1] = tested on: NCI-H226; assay: Growth inhibition of human NCI-H226 cells assessed as cell growth at 10^-8 M incubated for 48 hrs by sulforhodamine B assay relative to control; conditions: NCI-H226, 48 h, read-out: Activity
# [2] = tested on: SK-MEL-5; assay: Growth inhibition of human SK-MEL-5 cells assessed as cell growth at 10^-8 M incubated for 48 hrs by sulforhodamine B assay relative to control; conditions: SK-MEL-5, 48 h, read-out: Activity
# [3] = tested on: BT-549; assay: Growth inhibition of human BT549 cells assessed as cell growth at 10^-8 M incubated for 48 hrs by sulforhodamine B assay relative to control; conditions: BT-549, 48 h, read-out: Activity
# [4] = tested on: A549; assay: Growth inhibition of human A549/ATCC cells assessed as cell growth at 10^-7 M incubated for 48 hrs by sulforhodamine B assay relative to control; conditions: A549, 48 h, read-out: Activity
# [5] = tested on: HOP-62; assay: Growth inhibition of human HOP62 cells assessed as cell growth at 10^-7 M incubated for 48 hrs by sulforhodamine B assay relative to control; conditions: HOP-62, 48 h, read-out: Activity
# [6] = tested on: SF-295; assay: Growth inhibition of human SF295 cells assessed as cell growth at 10^-7 M incubated for 48 hrs by sulforhodamine B assay relative to control; conditions: SF-295, 48 h, read-out: Activity
# [7] = tested on: IGROV-1; assay: Growth inhibition of human IGROV1 cells assessed as cell growth at 10^-7 M incubated for 48 hrs by sulforhodamine B assay relative to control; conditions: IGROV-1, 48 h, read-out: Activity
# [8] = tested on: OVCAR-5; assay: Growth inhibition of human OVCAR5 cells assessed as cell growth at 10^-7 M incubated for 48 hrs by sulforhodamine B assay relative to control; conditions: OVCAR-5, 48 h, read-out: Activity
# [9] = tested on: ACHN; assay: Growth inhibition of human ACHN cells assessed as cell growth at 10^-7 M incubated for 48 hrs by sulforhodamine B assay relative to control; conditions: read-out: Activity
# [10] = tested on: SN12C; assay: Growth inhibition of human SN12C cells assessed as cell growth at 10^-7 M incubated for 48 hrs by sulforhodamine B assay relative to control; conditions: read-out: Activity
# [11] = tested on: MOLT-4; assay: Growth inhibition of human MOLT4 cells assessed as cell growth at 10^-6 M incubated for 48 hrs by sulforhodamine B assay relative to control; conditions: MOLT-4, 48 h, read-out: Activity
# [12] = tested on: SR; assay: Growth inhibition of human SR cells assessed as cell growth at 10^-6 M incubated for 48 hrs by sulforhodamine B assay relative to control; conditions: read-out: Activity
# [13] = tested on: HCT-116; assay: Growth inhibition of human HCT116 cells assessed as cell growth at 10^-6 M incubated for 48 hrs by sulforhodamine B assay relative to control; conditions: HCT-116, 48 h, read-out: Activity
# [14] = tested on: KM12; assay: Growth inhibition of human KM12 cells assessed as cell growth at 10^-6 M incubated for 48 hrs by sulforhodamine B assay relative to control; conditions: KM12, 48 h, read-out: Activity
# [15] = tested on: OVCAR-4; assay: Growth inhibition of human OVCAR4 cells assessed as cell growth at 10^-6 M incubated for 48 hrs by sulforhodamine B assay relative to control; conditions: OVCAR-4, 48 h, read-out: Activity
# [16] = tested on: 786-0; assay: Growth inhibition of human 786-0 cells assessed as cell growth at 10^-6 M incubated for 48 hrs by sulforhodamine B assay relative to control; conditions: 786-0, 48 h, read-out: Activity
# [17] = tested on: ACHN; assay: Growth inhibition of human ACHN cells assessed as cell growth at 10^-6 M incubated for 48 hrs by sulforhodamine B assay relative to control; conditions: read-out: Activity
# [18] = tested on: BT-549; assay: Growth inhibition of human BT549 cells assessed as cell growth at 10^-6 M incubated for 48 hrs by sulforhodamine B assay relative to control; conditions: BT-549, 48 h, read-out: Activity
# [19] = tested on: NCI-H23; assay: Growth inhibition of human NCI-H23 cells assessed as cell growth at 10^-5 M incubated for 48 hrs by sulforhodamine B assay relative to control; conditions: NCI-H23, 48 h, read-out: Activity
# [20] = tested on: HCC 2998; assay: Growth inhibition of human HCC2998 cells assessed as cell growth at 10^-5 M incubated for 48 hrs by sulforhodamine B assay relative to control; conditions: HCC 2998, 48 h, read-out: Activity
# [21] = tested on: SK-MEL-28; assay: Growth inhibition of human SK-MEL-28 cells assessed as cell growth at 10^-5 M incubated for 48 hrs by sulforhodamine B assay relative to control; conditions: SK-MEL-28, 48 h, read-out: Activity
# [22] = tested on: RXF 393; assay: Growth inhibition of human RXF393 cells assessed as cell growth at 10^-5 M incubated for 48 hrs by sulforhodamine B assay relative to control; conditions: RXF 393, 48 h, read-out: Activity
# [23] = tested on: TK-10; assay: Growth inhibition of human TK10 cells assessed as cell growth at 10^-5 M incubated for 48 hrs by sulforhodamine B assay relative to control; conditions: TK-10, 48 h, read-out: Activity
# [24] = tested on: HL-60(TB); assay: Growth inhibition of human HL-60(TB) cells assessed as cell growth at 10^-4 M incubated for 48 hrs by sulforhodamine B assay relative to control; conditions: HL-60, 48 h, read-out: Activity
# [25] = tested on: HOP-92; assay: Growth inhibition of human HOP92 cells assessed as cell growth at 10^-4 M incubated for 48 hrs by sulforhodamine B assay relative to control; conditions: HOP-92, 48 h, read-out: Activity
# [26] = tested on: NCI-H226; assay: Growth inhibition of human NCI-H226 cells assessed as cell growth at 10^-4 M incubated for 48 hrs by sulforhodamine B assay relative to control; conditions: NCI-H226, 48 h, read-out: Activity
# [27] = tested on: NCI-H322M; assay: Growth inhibition of human NCI-H322M cells assessed as cell growth at 10^-4 M incubated for 48 hrs by sulforhodamine B assay relative to control; conditions: read-out: Activity
# [28] = tested on: U-251; assay: Growth inhibition of human U251 cells assessed as cell growth at 10^-4 M incubated for 48 hrs by sulforhodamine B assay relative to control; conditions: U-251, 48 h, read-out: Activity
# [29] = tested on: SK-MEL-5; assay: Growth inhibition of human SK-MEL-5 cells assessed as cell growth at 10^-4 M incubated for 48 hrs by sulforhodamine B assay relative to control; conditions: SK-MEL-5, 48 h, read-out: Activity
# [30] = tested on: IGROV-1; assay: Growth inhibition of human IGROV1 cells assessed as cell growth at 10^-4 M incubated for 48 hrs by sulforhodamine B assay relative to control; conditions: IGROV-1, 48 h, read-out: Activity
# [31] = tested on: CAKI-1; assay: Growth inhibition of human Caki1 cells assessed as cell growth at 10^-4 M incubated for 48 hrs by sulforhodamine B assay relative to control; conditions: CAKI-1, 48 h, read-out: Activity
# [32] = tested on: SN12C; assay: Growth inhibition of human SN12C cells assessed as cell growth at 10^-4 M incubated for 48 hrs by sulforhodamine B assay relative to control; conditions: read-out: Activity
# [33] = tested on: PC-3; assay: Growth inhibition of human PC3 cells assessed as cell growth at 10^-4 M incubated for 48 hrs by sulforhodamine B assay relative to control; conditions: PC-3, 48 h, read-out: Activity
# [34] = tested on: T47D; assay: Growth inhibition of human T47D cells assessed as cell growth at 10^-4 M incubated for 48 hrs by sulforhodamine B assay relative to control; conditions: read-out: Activity
smiles,measurement,setting,value
CCCCOc1nc2ccccc2cc1C1CNC(=O)c2ccccc2N1 (centres undefined),growth at 0.01 µM,[1],97%
same,growth at 0.01 µM,[2],93%
same,growth at 0.01 µM,[3],105%
same,growth at 0.1 µM,[4],100%
same,growth at 0.1 µM,[5],98%
same,growth at 0.1 µM,[6],88%
same,growth at 0.1 µM,[7],92%
same,growth at 0.1 µM,[8],102%
same,growth at 0.1 µM,[9],98%
same,growth at 0.1 µM,[10],90%
same,growth at 1 µM,[11],92%
same,growth at 1 µM,[12],55%
same,growth at 1 µM,[13],75%
same,growth at 1 µM,[14],85%
same,growth at 1 µM,[15],85%
same,growth at 1 µM,[16],90%
same,growth at 1 µM,[17],91%
same,growth at 1 µM,[18],84%
same,growth at 10 µM,[19],33%
same,growth at 10 µM,[20],15%
same,growth at 10 µM,[21],44%
same,growth at 10 µM,[22],5%
same,growth at 10 µM,[23],31%
same,growth at 100 µM,[24],-55%
same,growth at 100 µM,[25],-38%
same,growth at 100 µM,[26],-32%
same,growth at 100 µM,[27],-16%
same,growth at 100 µM,[28],-77%
same,growth at 100 µM,[29],-24%
same,growth at 100 µM,[30],-51%
same,growth at 100 µM,[31],-22%
same,growth at 100 µM,[32],-53%
same,growth at 100 µM,[33],-63%
same,growth at 100 µM,[34],10%
